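Growth conditions: 96-well plates. Treatment: test compound, 48 hours, 5 concentrations. Analysis: linear interpolation between bracketing concentrations; unreached endpoints set to highest concentration. Abbreviation: GI50, concentration required for 50% inhibition of growth.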 Active and inactive are the calls of the source. Rule as the data show it: active = GI50 up to about 1.1 µM and inactive = higher.
Legend:
Assay in all cases: NCI-60 cell line screen, 48 h
[1] = test system: 786-0
[2] = test system: TK-10
[3] = test system: NCI/ADR-RES
[4] = test system: MOLT-4
[5] = test system: NCI-H23
[6] = test system: MDA-N
[7] = test system: T47D
[8] = test system: BT-549
[9] = test system: M14
[10] = test system: Malme-3M
[11] = test system: SF-539
[12] = test system: K562
[13] = test system: OVCAR-3
[14] = test system: CAKI-1
[15] = test system: HL-60
[16] = test system: KM12
[17] = test system: NCI-H522
[18] = test system: LOX IMVI
[19] = test system: A549

Row | Compound | GI50 [1] | GI50 [2] | GI50 [3] | GI50 [4] | GI50 [5] | GI50 [6] | GI50 [7] | GI50 [8] | GI50 [9] | GI50 [10] | GI50 [11] | GI50 [12] | GI50 [13] | GI50 [14] | GI50 [15] | GI50 [16] | GI50 [17] | GI50 [18] | GI50 [19]
1 | CC(C)O/N=C/c1cc(NC(=S)OC(C)C)ccc1Cl | 33.3 µM (inactive) | > 58.6 µM (inactive) | 35.5 µM (inactive) | 15.8 µM (inactive) | 43.9 µM (inactive) | > 69.5 µM (inactive) | 34.3 µM (inactive) | 55.5 µM (inactive) | 62.7 µM (inactive) | > 91.8 µM (inactive) | 24.8 µM (inactive) | 29.4 µM (inactive) | 32.5 µM (inactive) | 22.9 µM (inactive) | 20.4 µM (inactive) | 50.9 µM (inactive) | 26 µM (inactive) | 28.1 µM (inactive) | 35.4 µM (inactive)
2 | O=C(O)c1nc2nc(Cl)c(Cl)nc2[nH]1 | > 100 µM (inactive) | > 100 µM (inactive) | > 100 µM (inactive) | > 100 µM (inactive) | > 100 µM (inactive) | > 100 µM (inactive) | > 100 µM (inactive) | > 100 µM (inactive) | > 100 µM (inactive) | > 100 µM (inactive) | > 100 µM (inactive) | > 100 µM (inactive) | > 100 µM (inactive) | > 100 µM (inactive) | > 100 µM (inactive) | > 100 µM (inactive) | > 100 µM (inactive) | > 100 µM (inactive) | > 100 µM (inactive)
3 | C=CC(C)(O)CCC1C(=C)C(O)CC2C(C)(C)CCCC12C (stereo not given) | 18.6 µM (inactive) | 20 µM (inactive) | 18.5 µM (inactive) | 14.2 µM (inactive) | 18.7 µM (inactive) | 20.4 µM (inactive) | 23.5 µM (inactive) | 18 µM (inactive) | 16.3 µM (inactive) | 18.2 µM (inactive) | 17.9 µM (inactive) | 14.4 µM (inactive) | 18.9 µM (inactive) | 23.5 µM (inactive) | 14 µM (inactive) | 21.1 µM (inactive) | 17.6 µM (inactive) | 19.2 µM (inactive) | 22.1 µM (inactive)
4 | CCOC(=O)C(SCCO)C(C(=O)OCC)n1cc(C)c(=O)[nH]c1=O (stereo not given) | 3.88 µM (inactive) | 24.9 µM (inactive) | 24.8 µM (inactive) | 4.81 µM (inactive) | 21.2 µM (inactive) | 15.1 µM (inactive) | 19.6 µM (inactive) | 23.6 µM (inactive) | 11.6 µM (inactive) | 15.4 µM (inactive) | 23.1 µM (inactive) | 3.48 µM (inactive) | 12.5 µM (inactive) | 4.44 µM (inactive) | 2.12 µM (inactive) | 25.8 µM (inactive) | 3.3 µM (inactive) | 6.84 µM (inactive) | 52.8 µM (inactive)
5 | COc1ccccc1C(O)[C@@H]1C[C@@H]2[C@H]3CC[C@@](C)([C@@H]2O1)C3(C)C (stereo not given in full) | 17.8 µM (inactive) | 21.8 µM (inactive) | 17.5 µM (inactive) | 15.4 µM (inactive) | 19.5 µM (inactive) | 16.7 µM (inactive) | 16.4 µM (inactive) | 18.1 µM (inactive) | 21.4 µM (inactive) | 15 µM (inactive) | 6.53 µM (inactive) | 21.3 µM (inactive) | 17.1 µM (inactive) | 23.8 µM (inactive) | 20 µM (inactive) | 20.8 µM (inactive) | 17.4 µM (inactive) | 18.4 µM (inactive) | 21.2 µM (inactive)
6 | CCCCOC(=O)C(=O)C(CCC(=O)c1ccc(C)cc1)C(=O)C=C(C)C (stereo not given) | > 100 µM (inactive) | > 100 µM (inactive) | > 100 µM (inactive) | > 100 µM (inactive) | > 100 µM (inactive) | > 100 µM (inactive) | > 100 µM (inactive) | > 100 µM (inactive) | > 100 µM (inactive) | > 100 µM (inactive) | > 100 µM (inactive) | > 100 µM (inactive) | > 100 µM (inactive) | > 100 µM (inactive) | > 100 µM (inactive) | > 100 µM (inactive) | > 100 µM (inactive) | > 100 µM (inactive) | > 100 µM (inactive)
7 | Cc1ccc(NC(c2ccccc2)P(=O)(c2ccccc2)c2ccccc2)cc1 (stereo not given) | 95.1 µM (inactive) | > 100 µM (inactive) | > 100 µM (inactive) | > 100 µM (inactive) | > 100 µM (inactive) | > 100 µM (inactive) | > 100 µM (inactive) | > 100 µM (inactive) | > 100 µM (inactive) | > 100 µM (inactive) | > 100 µM (inactive) | 34.4 µM (inactive) | > 100 µM (inactive) | > 100 µM (inactive) | 34 µM (inactive) | > 100 µM (inactive) | > 100 µM (inactive) | > 100 µM (inactive) | > 100 µM (inactive)
8 | CNC(=S)NN=C1NCCCN1 | > 100 µM (inactive) | > 100 µM (inactive) | > 100 µM (inactive) | > 100 µM (inactive) | > 100 µM (inactive) | > 100 µM (inactive) | > 100 µM (inactive) | > 100 µM (inactive) | > 100 µM (inactive) | > 100 µM (inactive) | > 100 µM (inactive) | > 100 µM (inactive) | > 100 µM (inactive) | > 100 µM (inactive) | > 100 µM (inactive) | > 100 µM (inactive) | > 100 µM (inactive) | > 100 µM (inactive) | > 100 µM (inactive)
9 | NCCC(N)C(=O)O (stereo not given) | > 100 µM (inactive) | > 100 µM (inactive) | > 100 µM (inactive) | > 100 µM (inactive) | > 100 µM (inactive) | > 100 µM (inactive) | > 100 µM (inactive) | > 100 µM (inactive) | > 100 µM (inactive) | > 100 µM (inactive) | > 100 µM (inactive) | > 100 µM (inactive) | > 100 µM (inactive) | > 100 µM (inactive) | > 100 µM (inactive) | > 100 µM (inactive) | > 100 µM (inactive) | > 100 µM (inactive) | > 100 µM (inactive)
10 | CNC(=S)NNc1ncnc2c1c(-c1ccc(Cl)cc1)cn2-c1ccc(C)cc1 | 9.18 µM (inactive) | 18.8 µM (inactive) | 11.6 µM (inactive) | 3.85 µM (inactive) | 13.2 µM (inactive) | 8.61 µM (inactive) | 8.49 µM (inactive) | 14.2 µM (inactive) | 12.6 µM (inactive) | 13.1 µM (inactive) | 16 µM (inactive) | 3.2 µM (inactive) | 11.5 µM (inactive) | 8.07 µM (inactive) | 2.81 µM (inactive) | 7.71 µM (inactive) | 7.76 µM (inactive) | 9.38 µM (inactive) | 4.67 µM (inactive)
11 | c1n[nH]cc1C12C3C4C5C3C1C5C42 (stereo not given) | > 100 µM (inactive) | > 100 µM (inactive) | > 100 µM (inactive) | > 100 µM (inactive) | > 100 µM (inactive) | > 100 µM (inactive) | 85.3 µM (inactive) | > 100 µM (inactive) | > 100 µM (inactive) | > 100 µM (inactive) | > 100 µM (inactive) | > 100 µM (inactive) | > 100 µM (inactive) | > 100 µM (inactive) | 75.9 µM (inactive) | > 100 µM (inactive) | > 100 µM (inactive) | > 100 µM (inactive) | > 100 µM (inactive)
12 | N#CC(NNC(=O)Cc1ccccc1)c1ccccc1O (stereo not given) | 8.75 µM (inactive) | 24.2 µM (inactive) | 3.93 µM (inactive) | 3.72 µM (inactive) | 9.23 µM (inactive) | 19.4 µM (inactive) | 2.62 µM (inactive) | 21 µM (inactive) | 10.5 µM (inactive) | 16.3 µM (inactive) | 16.4 µM (inactive) | 11.3 µM (inactive) | 3.75 µM (inactive) | 12.6 µM (inactive) | 3.35 µM (inactive) | 11.6 µM (inactive) | 4.88 µM (inactive) | 4.98 µM (inactive) | 10.3 µM (inactive)
13 | CN(C)Cc1cc(/N=N/c2ccc(Cl)c(Cl)c2)ccc1O | 11.5 µM (inactive) | 10.9 µM (inactive) | 7.46 µM (inactive) | 6.21 µM (inactive) | 13.6 µM (inactive) | 11.4 µM (inactive) | 7 µM (inactive) | 13.8 µM (inactive) | 16 µM (inactive) | 15.6 µM (inactive) | 18.5 µM (inactive) | 2.61 µM (inactive) | 6.34 µM (inactive) | 12.6 µM (inactive) | 2.52 µM (inactive) | 4.35 µM (inactive) | 5.41 µM (inactive) | 3.4 µM (inactive) | 13.9 µM (inactive)
14 | CN(C)CCNC1=CC(=O)c2c(O)ccc(O)c2C1=O | 4.7 µM (inactive) | 14.4 µM (inactive) | 2.58 µM (inactive) | 5.14 µM (inactive) | 4.98 µM (inactive) | 1.97 µM (inactive) | 9.66 µM (inactive) | 14.6 µM (inactive) | 3.23 µM (inactive) | 1.25 µM (inactive) | 7.1 µM (inactive) | 2.52 µM (inactive) | 2.33 µM (inactive) | 13.9 µM (inactive) | 1.95 µM (inactive) | 6.35 µM (inactive) | 3.73 µM (inactive) | 3.39 µM (inactive) | 10.1 µM (inactive)
15 | NCS(=O)(=O)O | > 100 µM (inactive) | > 100 µM (inactive) | > 100 µM (inactive) | > 100 µM (inactive) | > 100 µM (inactive) | > 100 µM (inactive) | > 100 µM (inactive) | > 100 µM (inactive) | > 100 µM (inactive) | > 100 µM (inactive) | 0.0361 µM (active) | > 100 µM (inactive) | > 100 µM (inactive) | > 100 µM (inactive) | > 100 µM (inactive) | > 100 µM (inactive) | > 100 µM (inactive) | > 100 µM (inactive) | > 100 µM (inactive)

From ChEMBL document CHEMBL1201862, “PubChem BioAssay data set” (2004)
